In the NIST ThermoML archive (doi:10.1021/je0604232):

Assay: molar heat capacity at constant pressure; xn = mol fraction of the nth substance listed
Conditions: 101 kPa, Liquid

CNCCO [2-(methylamino)ethanol] + O
molar heat capacity at constant pressure [J/K/mol]
Conditions	x1 = 0.1	x1 = 0.1998	x1 = 0.3003	x1 = 0.399	x1 = 0.5002	x1 = 0.6061	x1 = 0.6987	x1 = 0.8003	x1 = 0.9004	x1 = 1
303.15 K	96	108	119	129	139	151	160	172	182	194
308.15 K	98	111	122	132	143	155	165	176	187	199
313.15 K	99	113	124	135	146	157	167	178	189	200
318.15 K	100	114	126	137	148	160	170	180	190	202
323.15 K	101	116	128	139	150	162	172	183	192	203
328.15 K	103	118	131	142	153	165	175	185	195	205
333.15 K	105	121	134	145	157	168	178	188	197	206
338.15 K	107	124	138	149	161	172	182	191	199	207
343.15 K	110	127	141	153	164	176	185	194	201	208
348.15 K	114	132	146	158	169	181	190	198	205	210
353.15 K	119	138	152	163	174	186	195	203	208	212

NCCCO [3-amino-1-propanol] + O
molar heat capacity at constant pressure [J/K/mol]
Conditions	x1 = 0.0999	x1 = 0.2001	x1 = 0.3003	x1 = 0.4015	x1 = 0.4996	x1 = 0.6006	x1 = 0.7003	x1 = 0.8003	x1 = 0.8966	x1 = 1
303.15 K	94	108	120	131	143	155	168	180	193	204
308.15 K	96	111	123	135	147	159	171	184	196	207
313.15 K	97	112	124	136	148	160	172	185	197	208
318.15 K	98	113	126	138	150	162	173	186	198	208
323.15 K	99	115	128	140	152	163	175	187	199	209
328.15 K	101	117	130	142	154	166	177	189	200	210
333.15 K	103	119	132	145	157	169	179	191	202	211
338.15 K	106	122	135	148	160	172	182	193	204	213
343.15 K	110	126	139	151	163	175	185	196	206	214
348.15 K	114	130	143	155	167	179	188	198	208	216
353.15 K	119	135	147	160	172	183	192	201	210	217
